The source of these data is patent publication US12091426B2, “Bifunctional degraders of hematopoietic progenitor kinase and therapeutic uses thereof” (Nurix Therapeutics, Inc., priority 2021, dated 2024).

Broadly, the DC50 is the midpoint of the concentration-degradation curve. By Dmax is commonly meant the largest share of the target that was removed.

The target of the test is T1, HPK1 (Homo sapiens, UniProt Q92918).
T1 construct: A HiBiT tag was introduced by CRISPR on the N terminus of HPK1 in Jurkat cells; host or cells: Jurkat cells (ATCC TIB-152), monoclonal line with CRISPR knock-in of HiBiT at the endogenous HPK1 locus
T1 sequence (Q92918 whole entry): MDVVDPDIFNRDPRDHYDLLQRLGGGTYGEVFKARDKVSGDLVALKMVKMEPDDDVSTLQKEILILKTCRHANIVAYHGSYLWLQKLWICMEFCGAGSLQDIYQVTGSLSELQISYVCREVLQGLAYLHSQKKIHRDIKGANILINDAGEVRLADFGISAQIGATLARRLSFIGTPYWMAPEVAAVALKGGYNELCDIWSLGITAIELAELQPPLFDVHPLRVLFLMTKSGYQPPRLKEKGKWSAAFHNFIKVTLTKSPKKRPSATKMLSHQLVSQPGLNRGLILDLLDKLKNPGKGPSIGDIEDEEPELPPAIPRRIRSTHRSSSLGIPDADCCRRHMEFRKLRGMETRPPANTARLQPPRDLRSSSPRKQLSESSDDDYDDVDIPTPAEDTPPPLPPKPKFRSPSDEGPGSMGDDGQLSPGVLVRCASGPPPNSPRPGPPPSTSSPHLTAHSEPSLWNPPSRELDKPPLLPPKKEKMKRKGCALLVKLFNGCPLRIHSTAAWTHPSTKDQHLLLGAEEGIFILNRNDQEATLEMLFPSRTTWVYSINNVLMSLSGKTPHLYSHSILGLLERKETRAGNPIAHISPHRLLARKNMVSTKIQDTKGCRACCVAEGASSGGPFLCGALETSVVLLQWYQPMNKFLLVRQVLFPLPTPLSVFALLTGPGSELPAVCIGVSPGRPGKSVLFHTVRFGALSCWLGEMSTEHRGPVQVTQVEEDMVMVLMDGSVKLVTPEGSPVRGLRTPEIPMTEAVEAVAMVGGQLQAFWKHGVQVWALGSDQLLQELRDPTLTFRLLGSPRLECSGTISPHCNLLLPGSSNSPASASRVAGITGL
The test is described as follows: HPK1 Cellular HiBit Degradation Assay. It counts as cell-based. Conditions: HiBiT HPK1 Jurkat cells, 24 hrs; for DC50: concentration at which 50% of HPK1 was remaining, read-out: DC50 Category; for Dmax: Jurkat, maximum degradation vs DMSO vehicle control, read-out: Dmax Category. The essentials: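 HiBiT-HPK1 Jurkat (CRISPR, N-term tag), 3×10^4 cells/well, RPMI 1640 + 10% FBS; CTMs 10 uM–0.1 nM, 11 pts; 24 hrs, 37° C/5% CO2; lytic HiBiT luminescence; % remaining vs DMSO, parental background subtracted; 4-parameter fit → DC50, Dmax.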
For orientation: With HiBiT, luminescence reflects the tagged protein that the partner subunit can reach.

As for `CC(C)n1cnc2cc(-c3ccc4c(c3)N([C@H]3C[C@@H](N5CC6CCC(C5)O6)C3)C(=O)C43CCN(C(=O)C4(C)CCN(C(=O)CC5CCN(c6ccc(C7CCC(=O)NC7=O)cn6)CC5)CC4)CC3)nc(NC3CC3)c21` (mixture of isomers) [Example 207, (3RS)-3-[6-(4-{2-[4-({6-[4-(cyclopropylamino)-3-(propan-2-yl)-3H-imidazo[4,5-c]pyridin-6-yl]-2-oxo-1-[(1S,3S)-3-{8-oxa-3-Azabicyclo[3.2.1]octan-3-yl}cyclobutyl]-1,2-dihydrospiro[indole-3,4′-piperidin]-1′-yl}carbonyl)-4-methylpiperidin-1-yl]-2-oxoethyl}piperidin-1-yl)pyridin-3-yl]piperidine-2,6-dione], the DC50 was 500 to 1000 nM and the Dmax fell in the range of 50 to 70%.

Consider `CC(C)n1cnc2cc(-c3ccc4c(c3)N([C@H]3C[C@@H](N5CCCCC5)C3)C(=O)C43CCN(C(=O)C4(C)CCN(C(=O)C5CCN(c6ncc(C7CCC(=O)NC7=O)cn6)CC5)CC4)CC3)nc(NC3CC3)c21` (mixture of isomers) [Example 220, (3RS)-3-(2-{4-[4-({6-[4-(cyclopropylamino)-3-(propan-2-yl)-3H-imidazo[4,5-c]pyridin-6-yl]-2-oxo-1-[(1S,3S)-3-(piperidin-1-yl)cyclobutyl]-1,2-dihydrospiro[indole-3,4′-piperidin]-1′-yl}carbonyl)-4-methylpiperidine-1-carbonyl]piperidin-1-yl}pyrimidin-5-yl)piperidine-2,6-dione], for which the DC50 is below 100 nM and the maximal degradation (Dmax) fell in the range of 70 to 85%.

As for `Cc1cc(F)c(Nc2nc(-c3ccc4c(c3)N([C@H]3C[C@@H](N5CCCCC5)C3)C(=O)C43CCN(C(=O)c4cc(C(=O)N5CCN(c6ccc7c(c6)C(=O)N(C6CCC(=O)NC6=O)C7=O)CC5)n(C)n4)CC3)cc3ncn(C(C)C)c23)cc1C(=O)NC(C)C` (mixture of isomers) [Example 145, 5-[(6-{1′-[5-(4-{2-[(3RS)-2,6-dioxopiperidin-3-yl]-1,3-dioxo-2,3-dihydro-1H-isoindol-5-yl}piperazine-1-carbonyl)-1-methyl-1H-pyrazole-3-carbonyl]-2-oxo-1-[(1S,3S)-3-(piperidin-1-yl)cyclobutyl]-1,2-dihydrospiro[indole-3,4′-piperidin]-6-yl}-3-(propan-2-yl)-3H-imidazo[4,5-c]pyridin-4-yl)amino]-4-fluoro-2-methyl-N-(propan-2-yl)benzamide], the DC50 is 500 to 1000 nM and the greatest degradation seen (Dmax) was 50 to 70%.

Turning to `CC(C(=O)N1CCN(C(=O)C2CCN(c3cc(C4CCC(=O)NC4=O)ccn3)CC2)CC1)N1CCC2(CC1)C(=O)N([C@H]1C[C@@H](N3CCCCC3)C1)c1cc(-c3cc4ncn(C(C)C)c4c(NC4CC4)n3)ccc12` (stereo partly drawn) [Example 173, 3-(2-{4-[4-(2-{6-[4-(cyclopropylamino)-3-(propan-2-yl)-3H-imidazo[4,5-c]pyridin-6-yl]-2-oxo-1-[(1S,3S)-3-(piperidin-1-yl)cyclobutyl]-1,2-dihydrospiro[indole-3,4′-piperidin]-1′-yl}propanoyl)piperazine-1-carbonyl]piperidin-1-yl}pyridin-4-yl)piperidine-2,6-dione], the DC50 lay in the range of 100 to 500 nM and the Dmax lay in the range of 70 to 85%.

Consider `CC(C)n1cnc2cc(-c3ccc4c(c3)N([C@H]3C[C@@H](N5CCCCC5)C3)C(=O)C43CCN(C(=O)C4(C)CCN(C(=O)[C@H]5CC[C@H](Nc6ccc(C7CCC(=O)NC7=O)cc6)CC5)CC4)CC3)nc(NC3CC3)c21` (mixture of isomers) [Example 191, (3RS)-3-(4-{[(1R,4R)-4-[4-({6-[4-(cyclopropylamino)-3-(propan-2-yl)-3H-imidazo[4,5-c]pyridin-6-yl]-2-oxo-1-[(1S,3S)-3-(piperidin-1-yl)cyclobutyl]-1,2-dihydrospiro[indole-3,4′-piperidin]-1′-yl}carbonyl)-4-methylpiperidine-1-carbonyl]cyclohexyl]amino}phenyl)piperidine-2,6-dione], for which the DC50 was below 100 nM and the Dmax was 70 to 85%.

`CC(C)n1cnc2cc(-c3ccc4c(c3)N([C@H]3C[C@@H](N5CCCCC5)C3)C(=O)C43CCN(C(=O)C4[C@@H]5C[C@H]4CN(C(=O)CC4CCN(c6ccc(C7CCC(=O)NC7=O)cn6)CC4)C5)CC3)nc(NC3CC3)c21` (stereo partly drawn) [Example 240, 3-(6-(4-(2-((1R,5S,6S)-6-(6-(4-(cyclopropylamino)-3-isopropyl-3H-imidazo[4,5-c]pyridin-6-yl)-2-oxo-1-((1S,3S)-3-(piperidin-1-yl)cyclobutyl)spiro[indoline-3,4′-piperidine]-1′-carbonyl)-3-azabicyclo[3.1.1]heptan-3-yl)-2-oxoethyl)piperidin-1-yl)pyridin-3-yl)piperidine-2,6-dione]: the DC50 is below 100 nM and the Dmax was above 85%.

For `CC(C)n1cnc2cc(-c3ccc4c(c3)N([C@H]3C[C@@H](N5CCCCC5)C3)C(=O)C43CCN(C(=O)CN4CCC(OCC#Cc5cccc6c5n(C)c(=O)n6C5CCC(=O)NC5=O)CC4)CC3)nc(NC3CC3)c21` (mixture of isomers) [Example 229, (3RS)-3-[4-(3-{[1-(2-{6-[4-(cyclopropylamino)-3-(propan-2-yl)-3H-imidazo[4,5-c]pyridin-6-yl]-2-oxo-1-[(1S,3S)-3-(piperidin-1-yl)cyclobutyl]-1,2-dihydrospiro[indole-3,4′-piperidin]-1′-yl}-2-oxoethyl)piperidin-4-yl]oxy}prop-1-yn-1-yl)-3-methyl-2-oxo-2,3-dihydro-1H-1,3-benzodiazol-1-yl]piperidine-2,6-dione], the half-maximal degradation concentration (DC50) was below 100 nM and the Dmax fell in the range of 70 to 85%.

Consider `CC(C)n1cnc2cc(-c3ccc4c(c3)N([C@H]3C[C@@H](N5CCCCC5)C3)C(=O)C43CCN(C(=O)C4(C#N)CCN(C(=O)C5CCN(c6ccc(C7CCC(=O)NC7=O)cc6)CC5)CC4)CC3)nc(NC3CC3)c21` (mixture of isomers) [Example 258, 4-({6-[4-(cyclopropylamino)-3-(propan-2-yl)-3H-imidazo[4,5-c]pyridin-6-yl]-2-oxo-1-[(1S,3S)-3-(piperidin-1-yl)cyclobutyl]-1,2-dihydrospiro[indole-3,4′-piperidin]-1′-yl}carbonyl)-1-(1-{4-[(3RS)-2,6-dioxopiperidin-3-yl]phenyl}piperidine-4-carbonyl)piperidine-4-carbonitrile], for which the DC50 was below 100 nM and the Dmax was in the range of 70 to 85%.

As to `CC(C)n1cnc2cc(-c3ccc4c(c3)N([C@H]3C[C@@H](N5CCC[C@@H](F)C5)C3)C(=O)C43CCN(C(=O)C4(C)CCN(C(=O)CC5CCN(c6ccc(C7CCC(=O)NC7=O)cn6)CC5)CC4)CC3)nc(NC3CC3)c21` (mixture of isomers) [Example 205, (3RS)-3-[6-(4-{2-[4-({6-[4-(cyclopropylamino)-3-(propan-2-yl)-3H-imidazo[4,5-c]pyridin-6-yl]-2-oxo-1-[(1S,3S)-3-[(3R)-3-fluoropiperidin-1-yl]cyclobutyl]-1,2-dihydrospiro[indole-3,4′-piperidin]-1′-yl}carbonyl)-4-methylpiperidin-1-yl]-2-oxoethyl}piperidin-1-yl)pyridin-3-yl]piperidine-2,6-dione], the DC50 was in the range of 100 to 500 nM and the Dmax is 50 to 70%.
